Measured values from patent US20240190891A1, “PYRIDO OXAZINE AMINO DERIVATIVES AS ALK5 INHIBITORS” (CHIESI FARMACEUTICI S.P.A., priority 2020, published 2024).

Biological target: T1, human ALK5 (Homo sapiens, UniProt P36897)
T1 construct: human ALK5 (recombinant TGF β1 N-term GST-tagged, 80-end); GST (N); purchased
T1 sequence (P36897 80-503 limits assumed): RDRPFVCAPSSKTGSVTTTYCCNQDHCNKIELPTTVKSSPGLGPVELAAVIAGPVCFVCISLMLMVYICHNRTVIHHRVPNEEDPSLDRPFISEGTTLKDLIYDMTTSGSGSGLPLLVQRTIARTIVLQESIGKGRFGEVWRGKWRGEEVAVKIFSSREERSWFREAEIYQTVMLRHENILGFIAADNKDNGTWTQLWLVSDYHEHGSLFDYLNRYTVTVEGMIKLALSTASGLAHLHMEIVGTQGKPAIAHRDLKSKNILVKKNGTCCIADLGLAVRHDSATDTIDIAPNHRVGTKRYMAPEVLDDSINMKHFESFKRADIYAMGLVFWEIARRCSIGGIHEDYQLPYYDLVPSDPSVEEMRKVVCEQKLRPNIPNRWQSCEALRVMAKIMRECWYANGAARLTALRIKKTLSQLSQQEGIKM
Assay: ADP-GLO Kinases assay, inhibitory activity on ALK5
Type: biochemical
Conditions: Table 10; purified recombinant human ALK5 2.6 nM, ADP-Glo, 25° C., 150 min incubation
Protocol: The enzymatic activity of compounds of the present invention was monitored measuring the formation of ADP using the ADP-GLO Kinases assay. Following the incubation of the purified enzyme, a substrate and ATP, the produced ADP was converted into ATP, which in turn was converted into light by Ultra-Glo Luciferase. The luminescent signal positively correlated with ADP amount and kinase activity. Briefly, the kinase reaction was performed by incubating 2.6 nM of the purified, commercially available human ALK5 (recombinant TGF β1 N-term GST-tagged, 80-end), a final concentration of TGFβ1 peptide 94.5 μM (Promega, T36-58) and ultra-pure ATP (Promega V915B). The ATP concentration was set at the Km value (concentration of substrate which permits the enzyme to achieve half maximal velocity (Vmax)) of ALK5 (5 μM). All reactions/incubations were performed at 25° C. Compound and ALK5 kinase were mixed and incubated for 15 mins. Reactions were initiated by addition of ATP at a final concentration in the assay of 0.83 μM. After an incubation of 150 min, the reaction was stopped, and ADP production detected with ADP-Glo kit according to manufacturer's indications. The assay was performed in 384-well format and was validated using a selection of reference compounds that was tested in 11 point concentration-response curve.
Compounds of the examples C1, C2 and C3 were tested in the same in vitro assay described above.

Row | SMILES | IC50 [nM]
1 | CN(C)CCC(=O)Nc1cnccc1Nc1cc(-c2cc(Cl)ccc2F)nc2c1OCCN2 [Example 39, N-(4-{[6-(5-chloro-2-fluorophenyl)-2H,3H,4H-pyrido[3,2-b][1,4]oxazin-8-yl]amino}pyridin-3-yl)-3-(dimethylamino)propanamide] | 5 to 10
2 | CS(=O)(=O)N1CCN(CCNC(=O)c2cnccc2Nc2cc(-c3cc(Cl)ccc3F)nc3c2OCCN3)CC1 [Example 46, 4-{[6-(5-chloro-2-fluorophenyl)-2H,3H,4H-pyrido[3,2-b][1,4]oxazin-8-yl]amino}-N-[2-(4-methanesulfonylpiperazin-1-yl)ethyl]pyridine-3-carboxamide] | 1 to 5
3 | CC(C)NC(=O)c1cnccc1Nc1cc(-c2cc(Cl)ccc2F)nc2c1OCCN2 [Example 22, 4-{[6-(5-chloro-2-fluorophenyl)-2H,3H,4H-pyrido[3,2-b][1,4]oxazin-8-yl]amino}-N-(propan-2-yl)pyridine-3-carboxamide] | 1 to 5
4 | CC(=O)N1CCN(CCNC(=O)c2cnccc2Nc2cc(-c3cc(Cl)ccc3F)nc3c2OCCN3)CC1 [Example 47, N-[2-(4-acetylpiperazin-1-yl)ethyl]-4-{[6-(5-chloro-2-fluorophenyl)-2H,3H,4H-pyrido[3,2-b][1,4]oxazin-8-yl]amino}pyridine-3-carboxamide] | 1 to 5
5 | CN(C)CCC(=O)Nc1cc(Nc2cc(-c3cc(Cl)ccc3F)nc3c2OCCN3)ccn1 [Example 34, N-(4-{[6-(5-chloro-2-fluorophenyl)-2H,3H,4H-pyrido[3,2-b][1,4]oxazin-8-yl]amino}pyridin-2-yl)-3-(dimethylamino)propanamide] | < 1
6 | Cc1cccc(-c2cc(Nc3ccncc3)c3c(n2)NCCO3)n1 [Example 5, N-[6-(6-methylpyridin-2-yl)-2H,3H,4H-pyrido[3,2-b][1,4]oxazin-8-yl]pyridin-4-amine] | 5 to 10
7 | COC(=O)c1cnccc1Nc1cc(-c2cccc(C)n2)nc2c1OCCN2 [Example 30, methyl 4-{[6-(6-methylpyridin-2-yl)-2H,3H,4H-pyrido[3,2-b][1,4]oxazin-8-yl]amino}pyridine-3-carboxylate] | < 1
8 | CN(CCNC(=O)c1cnccc1Nc1cc(-c2cc(Cl)ccc2F)nc2c1OCCN2)C1COC1 [Example 43, 4-{[6-(5-chloro-2-fluorophenyl)-2H,3H,4H-pyrido[3,2-b][1,4]oxazin-8-yl]amino}-N-{2-[methyl(oxetan-3-yl)amino]ethyl}pyridine-3-carboxamide] | 1 to 5
9 | CN(C)CCNC(=O)c1cnccc1Nc1cc(-c2cc(Cl)ccc2F)nc2c1OCCN2 [Example 10, 4-{[6-(5-chloro-2-fluorophenyl)-2H,3H,4H-pyrido[3,2-b][1,4]oxazin-8-yl]amino}-N-[2-(dimethylamino)ethyl]pyridine-3-carboxamide] | < 1
10 | COC(=O)c1cc2c(Nc3cc(-c4cc(Cl)ccc4F)nc4c3OCCN4)ccnc2[nH]1 [Example 38, methyl 4-{[6-(5-chloro-2-fluorophenyl)-2H,3H,4H-pyrido[3,2-b][1,4]oxazin-8-yl]amino}-1H-pyrrolo[2,3-b]pyridine-2-carboxylate] | < 1
11 | Cc1cccc(-c2cc(Nc3ccnc4[nH]ccc34)c3c(n2)NCCO3)n1 [Example 45, 6-(6-methylpyridin-2-yl)-N-{1H-pyrrolo[2,3-b]pyridin-4-yl}-2H,3H,4H-pyrido[3,2-b][1,4]oxazin-8-amine] | < 1
12 | O=C(NC1CCNCC1)c1cnccc1Nc1cc(-c2cc(Cl)ccc2F)nc2c1OCCN2 [Example 24, 4-{[6-(5-chloro-2-fluorophenyl)-2H,3H,4H-pyrido[3,2-b][1,4]oxazin-8-yl]amino}-N-(piperidin-4-yl)pyridine-3-carboxamide] | < 1
13 | Fc1ccc(Cl)cc1-c1cc(Nc2ccnc3[nH]ncc23)c2c(n1)NCCO2 [Example 25, 6-(5-chloro-2-fluorophenyl)-N-{1H-pyrazolo[3,4-b]pyridin-4-yl}-2H,3H,4H-pyrido[3,2-b][1,4]oxazin-8-amine] | < 1
14 | CN1CCN(CCNC(=O)c2cnccc2Nc2cc(-c3cc(Cl)ccc3F)nc3c2OCCN3)CC1 [Example 28, 4-{[6-(5-chloro-2-fluorophenyl)-2H,3H,4H-pyrido[3,2-b][1,4]oxazin-8-yl]amino}-N-[2-(4-methylpiperazin-1-yl)ethyl]pyridine-3-carboxamide] | 1 to 5
15 | CNC(=O)c1cc(Nc2cc(-c3cc(Cl)ccc3F)nc3c2OCCN3)ccn1 [Example 6, 4-{[6-(5-chloro-2-fluorophenyl)-2H,3H,4H-pyrido[3,2-b][1,4]oxazin-8-yl]amino}-N-methylpyridine-2-carboxamide] | 5 to 10
16 | Cc1cccc(-c2cc(Nc3ccncc3C(=O)NC3CCN(C)CC3)c3c(n2)NCCO3)n1 [Example 42, N-(1-methylpiperidin-4-yl)-4-{[6-(6-methylpyridin-2-yl)-2H,3H,4H-pyrido[3,2-b][1,4]oxazin-8-yl]amino}pyridine-3-carboxamide] | 1 to 5
17 | CN(C)CCOC(=O)c1cnccc1Nc1cc(-c2cc(Cl)ccc2F)nc2c1OCCN2 [Example 27, 2-(dimethylamino)ethyl 4-{[6-(5-chloro-2-fluorophenyl)-2H,3H,4H-pyrido[3,2-b][1,4]oxazin-8-yl]amino}pyridine-3-carboxylate] | 1 to 5
18 | Cc1cccc(-c2cc(Nc3ccnc4[nH]ncc34)c3c(n2)NCCO3)n1 [Example 41, 6-(6-methylpyridin-2-yl)-N-{1H-pyrazolo[3,4-b]pyridin-4-yl}-2H,3H,4H-pyrido[3,2-b][1,4]oxazin-8-amine] | < 1
19 | Clc1cccc(-c2cc(Nc3ccncc3)c3c(n2)NCCO3)c1 [Example 15, N-[6-(3-chlorophenyl)-2H,3H,4H-pyrido[3,2-b][1,4]oxazin-8-yl]pyridin-4-amine] | 1 to 5
20 | O=C(NCCN1CCOCC1)c1cnccc1Nc1cc(-c2cc(Cl)ccc2F)nc2c1OCCN2 [Example 9, 4-{[6-(5-chloro-2-fluorophenyl)-2H,3H,4H-pyrido[3,2-b][1,4]oxazin-8-yl]amino}-N-[2-(morpholin-4-yl)ethyl]pyridine-3-carboxamide] | 1 to 5
21 | Fc1ccc(F)c(-c2cc(Nc3ccncc3)c3c(n2)NCCO3)c1 [Example 14, N-[6-(2,5-difluorophenyl)-2H,3H,4H-pyrido[3,2-b][1,4]oxazin-8-yl]pyridin-4-amine] | 1 to 5
22 | Cc1ccc(F)c(-c2cc(Nc3ccncc3)c3c(n2)NCCO3)c1 [Example 8, N-[6-(2-fluoro-5-methylphenyl)-2H,3H,4H-pyrido[3,2-b][1,4]oxazin-8-yl]pyridin-4-amine] | < 1
23 | COC(=O)c1c[nH]c2nccc(Nc3cc(-c4cc(Cl)ccc4F)nc4c3OCCN4)c12 [Example 36, methyl 4-{[6-(5-chloro-2-fluorophenyl)-2H,3H,4H-pyrido[3,2-b][1,4]oxazin-8-yl]amino}-1H-pyrrolo[2,3-b]pyridine-3-carboxylate] | < 1
24 | Fc1ccc(Cl)cc1-c1cc(Nc2ccnc3[nH]cnc23)c2c(n1)NCCO2 [Example 35, 6-(5-chloro-2-fluorophenyl)-N-{3H-imidazo[4,5-b]pyridin-7-yl}-2H,3H,4H-pyrido[3,2-b][1,4]oxazin-8-amine] | < 1
25 | Cc1cccc(-c2cc(Nc3ccncc3)c3c(n2)NCCO3)c1 [Example 18, N-[6-(3-methylphenyl)-2H,3H,4H-pyrido[3,2-b][1,4]oxazin-8-yl]pyridin-4-amine] | 1 to 5
26 | COC(=O)c1cnccc1Nc1cc(-c2cc(Cl)ccc2F)nc2c1OCCN2 [Example 17, methyl 4-{[6-(5-chloro-2-fluorophenyl)-2H,3H,4H-pyrido[3,2-b][1,4]oxazin-8-yl]amino}pyridine-3-carboxylate] | < 1
27 | Clc1cccc(-c2cc(Nc3ccncc3)c3c(n2)NCCO3)n1 [Example 13, N-[6-(6-chloropyridin-2-yl)-2H,3H,4H-pyrido[3,2-b][1,4]oxazin-8-yl]pyridin-4-amine] | 1 to 5
28 | Fc1ccc(-c2cc(Nc3ccncc3)c3c(n2)NCCO3)nc1 [Example 26, N-[6-(5-fluoropyridin-2-yl)-2H,3H,4H-pyrido[3,2-b][1,4]oxazin-8-yl]pyridin-4-amine] | 5 to 10

Same assay, conditions: Table 11, comparative examples; same in vitro assay

Row | SMILES | IC50 [nM]
29 | Oc1ccc(-c2cc(-c3cc(Cl)ccc3F)nc3c2OCCN3)cc1 [Example C2, 4-[6-(5-chloro-2-fluorophenyl)-2H,3H,4H-pyrido[3,2-b][1,4]oxazin-8-yl]phenol, reference compound] | 1700
30 | Fc1ccc(Cl)cc1-c1cc(-c2ccncc2)c2c(n1)NCCO2 [Example C1, 4-[6-(5-chloro-2-fluorophenyl)-2H,3H,4H-pyrido[3,2-b][1,4]oxazin-8-yl]pyridine, reference compound] | 6500
